ChEMBL document CHEMBL6078623, “Structural insights into small-molecule KRAS inhibitors for targeting KRAS mutant cancers” (Eur J Med Chem, 2024)
Each block holds one compound with its values, some of them ahead of it.

Tests used:
DLD-1 = assay: Antiproliferative activity against human DLD-1 cells assessed as inhibition of cell growth incubated for 72 hrs by MTS assay; type: functional, cell-based; conditions: DLD-1, 72 h
HT-1080 = assay: Cytotoxicity against human HT-1080 cells assessed as reduction in cell viability incubated for 48 hrs by MTT assay; type: functional, cell-based; conditions: HT-1080, 48 h
GTPase KRas [1] = target: GTPase KRas (Homo sapiens, UniProt P01116, G12D); assay: Binding affinity to KRAS G12D mutant (unknown origin) assessed as dissociation constant by SPR analysis
GTPase KRas [2] = target: GTPase KRas (Homo sapiens, UniProt P01116, G12C); assay: Inhibition of KRAS G12C mutant in human NCI-H358 cells incubated for 24 hrs by Western blot analysis; type: cell-based
NCI-H358 = assay: Antiproliferative activity against human NCI-H358 cells assessed as reduction in cell viability; type: functional, cell-based
MIA PaCa-2 = assay: Antiproliferative activity against human MIA PaCa-2 cells assessed as reduction in cell viability; type: functional, cell-based

Sequence of GTPase KRas (Homo sapiens, UniProt P01116, G12C) (P01116 whole entry G12C): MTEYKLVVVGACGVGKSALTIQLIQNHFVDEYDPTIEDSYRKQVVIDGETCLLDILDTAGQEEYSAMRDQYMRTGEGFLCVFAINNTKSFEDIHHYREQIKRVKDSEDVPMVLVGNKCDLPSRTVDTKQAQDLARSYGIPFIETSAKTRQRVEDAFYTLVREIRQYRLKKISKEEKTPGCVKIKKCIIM
Sequence of GTPase KRas (Homo sapiens, UniProt P01116, G12D) (P01116 whole entry G12D): as the sequence (P01116 whole entry G12C) above, with C12D counted along it

Compound: COc1nc(-c2cccc3c2OCCO3)ccc1Nc1ccc(CN(C)C)cc1
IC50 (DLD-1): 8000 nM
IC50 (HT-1080): 10000 nM
Kd (GTPase KRas [1]): 51 nM

IC50 (GTPase KRas [2]): 1000 nM
Compound: NC1(C(=O)NCCCn2cc(-c3ccc(OC(F)(F)F)cc3)c3cc(CN4CCN(Cc5c(Cl)cccc5Cl)CC4)ccc32)CCNCC1

IC50 (GTPase KRas [2]): 3.35 nM
Compound: C=CC(=O)N1CCN2C(=O)Cc3cc(F)c(-c4ccc(F)c5sc(N)c(C#N)c45)c(Cl)c3OCC2C1 (stereo not drawn)

Compound: C=CC(=O)N1CC2(CC(n3nc(-c4ccc5c(cnn5C)c4)c(-c4c(Cl)c(C)cc5[nH]ncc45)c3C)C2)C1 [OPNURASIB]
IC50 (NCI-H358): 18 nM
IC50 (GTPase KRas [2]): 10 nM

Compound: C=CC(=O)N1CCN(c2nc(=O)n(-c3c(C)ccnc3C(C)C)c3nc(-c4c(O)cccc4F)c(F)cc23)[C@@H](C)C1 [SOTORASIB]
IC50 (MIA PaCa-2): 100 nM
